Reference: PubChem BioAssay AID248 (DTP/NCI, 2004)
“And” between values parts separate entries of the source, which are not always exact repeats. Equal entries are not always repeated. Inconclusive results and toxic doses are left out. No stated cut-off is given here; in the data, active means T/C of 150% or more; inactive means T/C below 125%.

System: L1210 leukemia ip in BDF1 mice, survival T/C
Experiment: NCI In Vivo Anticancer Drug Screen. Data for tumor model L1210 Leukemia (intraperitoneal) in B6D2F1 (BDF1) mice
Details: endpoint: mean survival time, higher = longer survival
Method in brief: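 Survival endpoint. Drug-treated group vs vehicle group, expressed as T divided by C. Tumor passaged by transplantation.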

[1] = dose: 100.0 mg/kg/injection, schedule: Q01DX001 (ip), vehicle: saline
[2] = dose: 200.0 mg/kg/injection, schedule: Q01DX001 (ip), vehicle: saline
[3] = dose: 100.0 mg/kg/injection, schedule: Q04DX003 (ip), vehicle: saline with Tween-80
[4] = dose: 200.0 mg/kg/injection, schedule: Q04DX003 (ip), vehicle: saline with Tween-80
[5] = dose: 400.0 mg/kg/injection, schedule: Q04DX003 (ip), vehicle: saline with Tween-80
[6] = dose: 100.0 mg/kg/injection, schedule: Q01DX001 (ip), vehicle: carboxymethylcellulose (CMC)
[7] = dose: 200.0 mg/kg/injection, schedule: Q01DX001 (ip), vehicle: carboxymethylcellulose (CMC)

Measured: T/C

COC1(OC)C2(Cl)C3C4C5(OC(C)=O)C(=O)C3(OC(C)=O)C3C5C(Cl)(C41Cl)C32Cl (stereo not given)
inactive: [1] 100 % of control | [2] 96 % of control | dose: 400.0 mg/kg/injection, schedule: Q01DX001 (ip), vehicle: saline 96 % of control

CC1CN=C(c2ccc(NC(=O)c3ccc(C(=O)Nc4ccc(C5=NCC(C)N5)cc4)cc3)cc2)N1 (stereo not given)
active: dose: 1.9 mg/kg/injection, schedule: Q01DX Z (ip), vehicle: carboxymethylcellulose (CMC) 198 % of control | dose: 2.9 mg/kg/injection, schedule: Q01DX Z (ip), vehicle: carboxymethylcellulose (CMC) 173 % of control and 193 % of control | dose: 3.8 mg/kg/injection, schedule: Q01DX Z (ip), vehicle: carboxymethylcellulose (CMC) 228 % of control | dose: 4.3 mg/kg/injection, schedule: Q01DX Z (ip), vehicle: carboxymethylcellulose (CMC) 157 % of control | dose: 6.5 mg/kg/injection, schedule: Q01DX Z (ip), vehicle: carboxymethylcellulose (CMC) 207 % of control | dose: 7.5 mg/kg/injection, schedule: Q01DX Z (ip), vehicle: carboxymethylcellulose (CMC) 337 % of control | dose: 9.7 mg/kg/injection, schedule: Q01DX Z (ip), vehicle: carboxymethylcellulose (CMC) 205 % of control | dose: 15.0 mg/kg/injection, schedule: Q01DX Z (ip), vehicle: carboxymethylcellulose (CMC) 243 % of control | dose: 30.0 mg/kg/injection, schedule: Q01DX Z (ip), vehicle: carboxymethylcellulose (CMC) 175 % of control | dose: 32.8 mg/kg/injection, schedule: Q01DX Z (ip), vehicle: carboxymethylcellulose (CMC) 151 % of control
inactive: dose: 0.5 mg/kg/injection, schedule: Q01DX Z (ip), vehicle: carboxymethylcellulose (CMC) 100 % of control | dose: 1.0 mg/kg/injection, schedule: Q01DX Z (ip), vehicle: carboxymethylcellulose (CMC) 117 % of control | dose: 1.0 mg/kg/injection, schedule: Q01DX Z (ip), vehicle: saline 119 % of control | dose: 30.0 mg/kg/injection, schedule: Q01DX Z (oral), vehicle: carboxymethylcellulose (CMC) 97 % of control | dose: 60.0 mg/kg/injection, schedule: Q01DX Z (ip), vehicle: saline 119 % of control | dose: 60.0 mg/kg/injection, schedule: Q01DX Z (oral), vehicle: carboxymethylcellulose (CMC) 94 % of control | dose: 62.5 mg/kg/injection, schedule: Q## X010 (oral), vehicle: saline 102 % of control | dose: 74.0 mg/kg/injection, schedule: Q01DX Z (ip), vehicle: carboxymethylcellulose (CMC) 114 % of control | dose: 111.0 mg/kg/injection, schedule: Q01DX Z (ip), vehicle: carboxymethylcellulose (CMC) 101 % of control | dose: 120.0 mg/kg/injection, schedule: Q01DX Z (ip), vehicle: saline 114 % of control | dose: 120.0 mg/kg/injection, schedule: Q01DX Z (oral), vehicle: carboxymethylcellulose (CMC) 97 % of control | dose: 125.0 mg/kg/injection, schedule: Q## X010 (oral), vehicle: saline 102 % of control | dose: 240.0 mg/kg/injection, schedule: Q01DX Z (oral), vehicle: carboxymethylcellulose (CMC) 94 % of control | dose: 250.0 mg/kg/injection, schedule: Q## X010 (oral), vehicle: saline 102 % of control | dose: 375.0 mg/kg/injection, schedule: Q01DX Z (ip), vehicle: carboxymethylcellulose (CMC) 117 % of control | dose: 500.0 mg/kg/injection, schedule: Q## X010 (oral), vehicle: saline 103 % of control

CCOC(=O)CC(=O)c1ccccc1SC
inactive: [3] 102 % of control | [4] 100 % of control | [5] 91 % of control

CC(CC(=O)C[N+](=O)[O-])=Nc1ccccc1
inactive: dose: 100.0 mg/kg/injection, schedule: Q04DX002 (ip), vehicle: Klucel (hydroxypropylcellulose) (HPC) 90 % of control | dose: 200.0 mg/kg/injection, schedule: Q04DX002 (ip), vehicle: Klucel (hydroxypropylcellulose) (HPC) 104 % of control | dose: 400.0 mg/kg/injection, schedule: Q04DX002 (ip), vehicle: Klucel (hydroxypropylcellulose) (HPC) 97 % of control

COC1CCC2CC3(CCC2(C)C1O)OCCO3 (stereo not given)
inactive: [6] 100 % of control | [7] 105 % of control | dose: 400.0 mg/kg/injection, schedule: Q01DX001 (ip), vehicle: carboxymethylcellulose (CMC) 97 % of control

CC(=O)CC(=O)Nc1ccc(C)cc1C
inactive: dose: 100.0 mg/kg/injection, schedule: Q04DX003 (ip), vehicle: Klucel (hydroxypropylcellulose) (HPC) 102 % of control | dose: 200.0 mg/kg/injection, schedule: Q04DX003 (ip), vehicle: Klucel (hydroxypropylcellulose) (HPC) 98 % of control | dose: 400.0 mg/kg/injection, schedule: Q04DX003 (ip), vehicle: Klucel (hydroxypropylcellulose) (HPC) 115 % of control

C1C[N+]2(CCO1)CC[N+]1(CCOCC1)CC2
inactive: dose: 100.0 mg/kg/injection, schedule: Q04DX002 (ip), vehicle: saline 104 % of control | dose: 200.0 mg/kg/injection, schedule: Q04DX002 (ip), vehicle: saline 96 % of control | dose: 400.0 mg/kg/injection, schedule: Q04DX002 (ip), vehicle: saline 100 % of control

Nc1ncnc2c1ncn2C1OC(CO)C(S)C1O (stereo not given)
inactive: [6] 105 % of control | [7] 92 % of control

CC(=O)Oc1cc2c3c(c1)CCCN3CCC2
inactive: dose: 1.25 mg/kg/injection, schedule: Q01DX009 (ip), vehicle: saline 101 % of control | dose: 2.5 mg/kg/injection, schedule: Q01DX009 (ip), vehicle: saline 106 % of control | dose: 5.0 mg/kg/injection, schedule: Q01DX009 (ip), vehicle: saline 98 % of control

N/C(=N\[N+](=O)[O-])N(CCCCl)N=O
inactive: dose: 3.12 mg/kg/injection, schedule: Q01DX Z (ip), vehicle: saline 105 % of control | dose: 6.25 mg/kg/injection, schedule: Q01DX Z (ip), vehicle: saline 106 % of control | dose: 12.5 mg/kg/injection, schedule: Q01DX Z (ip), vehicle: saline 106 % of control | dose: 18.75 mg/kg/injection, schedule: Q01DX009 (ip), vehicle: saline with Tween-80 107 % of control | dose: 25.0 mg/kg/injection, schedule: Q01DX Z (ip), vehicle: saline 120 % of control | dose: 37.5 mg/kg/injection, schedule: Q01DX009 (ip), vehicle: saline with Tween-80 103 % of control | dose: 40.0 mg/kg/injection, schedule: Q01DX Z (ip), vehicle: carboxymethylcellulose (CMC) 119 % of control | dose: 50.0 mg/kg/injection, schedule: Q01DX001 (ip), vehicle: saline 108 % of control | dose: 60.0 mg/kg/injection, schedule: Q01DX Z (ip), vehicle: carboxymethylcellulose (CMC) 116 % of control | dose: 75.0 mg/kg/injection, schedule: Q01DX009 (ip), vehicle: saline with Tween-80 123 % of control | dose: 90.0 mg/kg/injection, schedule: Q01DX Z (ip), vehicle: carboxymethylcellulose (CMC) 111 % of control | [1] 97 % of control | dose: 150.0 mg/kg/injection, schedule: Q01DX009 (ip), vehicle: saline with Tween-80 104 % of control | [2] 106 % of control

NC(CSC(c1ccccc1)(c1ccccc1)c1ccc(Br)cc1)C(=O)O (stereo not given)
active: dose: 3.13 mg/kg/injection, schedule: Q01DX009 (ip), vehicle: saline 155 % of control | dose: 6.25 mg/kg/injection, schedule: Q01DX009 (ip), vehicle: saline 162 % of control | dose: 12.5 mg/kg/injection, schedule: Q01DX009 (ip), vehicle: saline 214 % of control
inactive: dose: 25.0 mg/kg/injection, schedule: Q01DX009 (ip), vehicle: saline 111 % of control | dose: 75.0 mg/kg/injection, schedule: Q01DX001 (ip), vehicle: other 105 % of control | dose: 150.0 mg/kg/injection, schedule: Q01DX001 (ip), vehicle: other 121 % of control

O=C(CCC(=O)[O][Sn]([c]1ccccc1)([c]1ccccc1)[c]1ccccc1)[O][Sn]([c]1ccccc1)([c]1ccccc1)[c]1ccccc1
inactive: dose: 1.56 mg/kg/injection, schedule: Q01DX009 (ip), vehicle: saline with Tween-80 93 % of control | dose: 3.12 mg/kg/injection, schedule: Q01DX009 (ip), vehicle: saline with Tween-80 90 % of control | dose: 6.25 mg/kg/injection, schedule: Q04DX003 (ip), vehicle: saline with Tween-80 95 % of control | dose: 12.5 mg/kg/injection, schedule: Q01DX001 (ip), vehicle: saline 104 % of control | dose: 25.0 mg/kg/injection, schedule: Q01DX001 (ip), vehicle: saline 91 % of control

O=C1/C(=C\c2ccccc2)Oc2cc(O)c(O)cc21
inactive: dose: 100.0 mg/kg/injection, schedule: Q01DX001 (ip), vehicle: saline with Tween-80 98 % of control

c1ccc(-c2cc(-c3ccccc3)[s+]s2)cc1
inactive: dose: 50.0 mg/kg/injection, schedule: Q01DX009 (ip), vehicle: saline with Tween-80 100 % of control | dose: 100.0 mg/kg/injection, schedule: Q01DX009 (ip), vehicle: saline with Tween-80 90 % of control | [3] 113 % of control | [4] 92 % of control | [5] 88 % of control
